Activity calls are given as the source filed them. The calls are words filed in the database; no cut-off is given here.
Tests used:
[1] = system: Escherichia coli; experiment: Antimicrobial activity against Escherichia coli ATCC 11775 after 24 hrs by spectrophotometric method; type: functional, organism-based; conditions: DSM 30083 = JCM 1649 = ATCC 11775
[2] = system: Pseudomonas aeruginosa; experiment: Antimicrobial activity against Pseudomonas aeruginosa ATCC 10145 after 24 hrs by spectrophotometric method; type: functional, organism-based
[3] = system: Bacillus subtilis; experiment: Antimicrobial activity against Bacillus subtilis ATCC 6051 after 24 hrs by spectrophotometric method; type: functional, organism-based
[4] = system: Staphylococcus aureus; experiment: Antimicrobial activity against Staphylococcus aureus ATCC 25923 after 24 hrs by spectrophotometric method; type: functional, organism-based
[5] = system: Candida albicans; experiment: Antimicrobial activity against Candida albicans ATCC 10231 after 24 hrs by spectrophotometric method; type: functional, organism-based
[6] = system: Candida parapsilosis; experiment: Antimicrobial activity against Candida parapsilosis ATCC 22019 after 24 hrs by spectrophotometric method; type: functional, organism-based
[7] = system: Pichia kudriavzevii; experiment: Antimicrobial activity against Candida krusei ATCC 6258 after 24 hrs by spectrophotometric method; type: functional, organism-based
[8] = system: NCI-H460; experiment: Cytotoxicity against human NCI-H460 cells assessed as inhibition of cell growth after 48 hrs by MTT assay; type: cell-based; conditions: NCI-H460, 48 h
[9] = system: SW-620; experiment: Cytotoxicity against human SW620 cells assessed as inhibition of cell growth after 48 hrs by MTT assay; type: cell-based; conditions: SW-620, 48 h

Row | Compound | Activity [1] | Activity [2] | Activity [3] | Activity [4] | Activity [5] | Activity [6] | Activity [7] | IC50 [8] | IC50 [9]
1 | CC[C@@H](C)[C@H](NC(=O)[C@H](CCC(N)=O)NC(=O)C(C)(C)NC(C)=O)C(=O)N[C@H](C(=O)NC(C)(C)C(=O)N1CCC[C@H]1C(=O)N[C@H](C(=O)N[C@@H](CC(C)C)C(=O)NC(C)(C)C(=O)N1CCC[C@H]1C(=O)N[C@H](CO)CC(C)C)[C@@H](C)CC)C(C)C | inactive | inactive | inactive | inactive | inactive | inactive | inactive | > 30 µM | > 30 µM
2 | CC[C@@H](C)[C@H](NC(=O)[C@H](CCC(N)=O)NC(=O)[C@@](C)(CC)NC(C)=O)C(=O)N[C@H](C(=O)NC(C)(C)C(=O)N1CCC[C@H]1C(=O)N[C@H](C(=O)N[C@@H](CC(C)C)C(=O)NC(C)(C)C(=O)N1CCC[C@H]1C(=O)N[C@H](CO)C(C)C)[C@@H](C)CC)C(C)C | inactive | inactive | inactive | inactive | inactive | inactive | inactive | 19.3 µM | 18.9 µM
3 | CC[C@H](C)[C@H](NC(=O)[C@@H]1CCCN1C(=O)C(C)(C)NC(=O)[C@@H](NC(=O)[C@@H](NC(=O)[C@H](CCC(N)=O)NC(=O)[C@@](C)(CC)NC(C)=O)C(C)C)C(C)C)C(=O)N[C@@H](CC(C)C)C(=O)NC(C)(C)C(=O)N1CCC[C@H]1C(=O)N[C@H](CO)C(C)C | inactive | inactive | inactive | inactive | inactive | inactive | inactive | > 30 µM | 27.5 µM
4 | CC[C@@H](C)[C@H](NC(=O)[C@H](CCC(N)=O)NC(=O)[C@@](C)(CC)NC(C)=O)C(=O)N[C@H](C(=O)NC(C)(C)C(=O)N1CCC[C@H]1C(=O)N[C@H](C(=O)N[C@@H](CC(C)C)C(=O)NC(C)(C)C(=O)N1CCC[C@H]1C(=O)N[C@H](CO)CC(C)C)[C@@H](C)CC)C(C)C | inactive | inactive | inactive | inactive | inactive | inactive | inactive | 10.9 µM | 12.8 µM
5 | CC[C@@H](C)[C@H](NC(=O)[C@H](CCC(N)=O)NC(=O)C(C)(C)NC(C)=O)C(=O)N[C@H](C(=O)NC(C)(C)C(=O)N1CCC[C@H]1C(=O)N[C@H](C(=O)N[C@@H](CC(C)C)C(=O)NC(C)(C)C(=O)N1CCC[C@H]1C(=O)N[C@H](CO)C(C)C)[C@@H](C)CC)C(C)C | inactive | inactive | inactive | inactive | inactive | inactive | inactive | > 30 µM | > 30 µM

Source: ChEMBL document CHEMBL4251684, “Trichodermides A-E: New Peptaibols Isolated from the Australian Termite Nest-Derived Fungus Trichoderma virens CMB-TN16” (J Nat Prod, 2018)
